# Values of other authors as cited in patent EP0279688B1, “Methods and compositions for the use of HIV env polypeptides and antibodies thereto” (GENENTECH, INC., priority 1987, dated 1988).
# Tested on: viral replication
# Conditions: Mitsuya and Broder, 1985
row,Structure (SMILES),concentrations inhibiting viral replication
1,Cc1cn([C@H]2C[C@H](N=[N+]=[N-])[C@@H](CO)O2)c(=O)[nH]c1=O [AZT],50-500 µm
2,Nc1ccn([C@H]2CC[C@@H](CO)O2)c(=O)n1 [DDC],50-500 µm
